The values that follow come from patent US20070213283A1, “Macrolides substituted at the 4"-position” (priority 2003, published 2007).

Structures can show the parent of a compound that is named as a salt. Where only a bound is given, the exact number is not on record here.

What all share (experiment): MIC, standard broth dilution method in microtitre
What all share (assay type): cell-based

For one assay, the system named is H. influenzae ATCC 49247. Particulars: Haemophilus influenzae, ATCC49247; H. influenzae ATCC 49247; broth dilution in microtitre; read-out: MIC. On the procedure: (§1) Using a standard broth dilution method in microtitre, compounds were tested for antibacterial activity. The compounds in the above examples gave minimum inhibitory concentrations (MICs) less than 1 microgram per millilitre against erythromycin-sensitive and erythromycin-resistant strains of Streptococcus pneumoniae and Streptococcus pyogenes.
(§2) In addition, the MIC (μg/mL) of test compounds against various organisms was determined including:
(§3) S. aureus Smith ATCC 13709, S. pneumoniae SP030, S. pyogenes 3565, E. faecalis ATCC 29212, H. influenzae ATCC 49247, M. catarrhalis ATCC 23246.

In the next assay the test system is E. faecalis ATCC 29212. Particulars: Enterococcus faecalis, ATCC29212. On the procedure: as §1, §2, §3
A further assay relates to S. pyogenes 3565. The note with it: Streptococcus pyogenes. On the procedure: as §1, §2, §3
Assay [1] deals with M. catarrhalis ATCC 23246. Particulars: Moraxella catarrhalis, ATCC23246. On the procedure: as §1, §2, §3
Another assay concerns S. pneumoniae SP030. The note with it: Streptococcus pneumoniae. The protocol:
as §1, §2, §3

In assay [2] the test system is S. aureus Smith ATCC 13709. Particulars: Staphylococcus aureus, ATCC13709. On the procedure: as §1, §2, §3

For `CC[C@H]1OC(=O)[C@H](C)[C@@H](O[C@H]2C[C@@](C)(OC)[C@@H](OC(=O)CCNCCSc3ccc4c(=O)c(C(=O)O)cn(CC)c4c3)[C@H](C)O2)[C@@H](C)[C@@H](O[C@@H]2O[C@H](C)C[C@H](N(C)C)[C@H]2O)[C@](C)(O)C[C@@H](C)CN(C)[C@H](C)[C@@H](O)[C@]1(C)O` [Example 1, 4″-O-{3-[2-(3-Carboxy-1-ethyl-4-oxo-1,4-dihydro-7-quinolinylsulfanyl)ethylamino]propionyl}-azithromycin], the MIC was not above 2 µg/mL in the assay with H. influenzae ATCC 49247; not above 1 µg/mL in the assay on E. faecalis ATCC 29212; not above 1 µg/mL against S. pyogenes 3565; not above 2 µg/mL in assay [1]; not above 1 µg/mL in the assay on S. pneumoniae SP030; not above 1 µg/mL in assay [2].
As for `CC[C@@H]1OC(=O)[C@H](C)[C@H](O[C@@H]2C[C@](C)(OC)[C@H](OC(=O)CCNCCOc3ccc4c(c3)c(=O)c(C(=O)O)cn4CC)[C@H](C)O2)[C@@H](C)[C@H](O[C@@H]2O[C@H](C)C[C@H](N(C)C)[C@@H]2O)[C@](C)(O)C[C@H](C)CN(C)[C@H](C)[C@@H](O)[C@]1(C)O` [Example 14, 4″-O-{3-[2-(3-Carboxy-1-ethyl-4-oxo-1,4-dihydro-6-quinolinyloxy)ethylamino]propionyl}-azithromycin tris trifluoroacetate salt], the MIC (against E. faecalis ATCC 29212; in the assay on S. pyogenes 3565; in the assay on S. pneumoniae SP030; in assay [2]) was not above 1 µg/mL each time.
For `CC[C@H]1OC(=O)[C@H](C)[C@@H](O[C@H]2C[C@@](C)(OC)[C@@H](OC(=O)CCOCCNc3cc4c(=O)c(C(=O)O)cn(C5CC5)c4cc3Cl)[C@H](C)O2)[C@H](C)[C@@H](O[C@@H]2O[C@H](C)C[C@H](N(C)C)[C@H]2O)[C@](C)(OC)C[C@@H](C)C(=O)[C@H](C)[C@@H](O)[C@]1(C)O` [Example 36, 4″-O-{3-[2-(3-Carboxy-7-chloro-1-cyclopropyl-4-oxo-1,4-dihydro-quinolin-6-ylamino)ethoxy]propionyl}-6-O-methyl-erythromycin A], the MIC (in the assay on E. faecalis ATCC 29212; in the assay with S. pyogenes 3565; in the assay with S. pneumoniae SP030; in assay [2]) was not above 1 µg/mL in each case.
In the case of `CC[C@H]1OC(=O)[C@H](C)[C@@H](O[C@H]2C[C@@](C)(OC)[C@@H](OC(=O)CCOCCNc3cc4c(cc3F)c(=O)c(C(=O)O)cn4C3CC3)[C@H](C)O2)[C@H](C)[C@@H](O[C@@H]2O[C@H](C)C[C@H](N(C)C)[C@H]2O)[C@](C)(O)C[C@@H](C)CN(C)[C@H](C)[C@@H](O)[C@]1(C)O` [Example 40, 4″-O-{3-[2-(3-Carboxy-1-cyclopropyl-6-fluoro-4-oxo-1,4-dihydro-quinolin-7-ylamino)ethoxy]propionyl}-azithromycin], the MIC was not above 2 µg/mL in the assay on H. influenzae ATCC 49247; not above 1 µg/mL with E. faecalis ATCC 29212; not above 1 µg/mL against S. pyogenes 3565; not above 2 µg/mL in assay [1]; not above 1 µg/mL against S. pneumoniae SP030; not above 1 µg/mL in assay [2].
`CC[C@H]1OC(=O)[C@H](C)[C@@H](O[C@H]2C[C@@](C)(OC)[C@@H](OC(=O)CCOCCOc3ccc4c(c3)c(=O)c(C(=O)O)cn4C3CC3)[C@H](C)O2)[C@H](C)[C@@H](O[C@@H]2O[C@H](C)C[C@H](N(C)C)[C@H]2O)[C@](C)(O)C[C@@H](C)CN(C)[C@H](C)[C@H]2OC(=O)O[C@@]21C` [Example 26, 4″-O-{3-[2-(3-Carboxy-1-cyclopropyl-4-oxo-1,4-dihydro-quinolin-6-yloxy)-ethoxy]-propionyl}-azithromycin11,12-carbonate]: the MIC was not above 2 µg/mL in the assay with H. influenzae ATCC 49247; not above 1 µg/mL with E. faecalis ATCC 29212; not above 1 µg/mL in the assay with S. pyogenes 3565; not above 2 µg/mL in assay [1]; not above 1 µg/mL with S. pneumoniae SP030; not above 1 µg/mL in assay [2].
In the case of `CC[C@@H]1OC(=O)[C@H](C)[C@H](O[C@H]2C[C@@](C)(OC)[C@@H](OC(=O)CCNCCSc3ccc4c(=O)c(C(=O)O)cn(CC)c4c3)[C@@H](C)O2)[C@@H](C)[C@H](OC2O[C@@H](C)C[C@@H](N(C)C)[C@H]2O)[C@@](C)(OC)C[C@H](C)C(=O)[C@H](C)[C@@H](O)[C@]1(C)O` (some centres unmarked) [Example 3, 4″-O-{3-[2-(3-Carboxy-1-ethyl-4-oxo-1,4-dihydro-7-quinolinylsulfanyl)ethylamino]propionyl}-6-O-methyl-erythromycin A], the MIC (in the assay with H. influenzae ATCC 49247; in assay [1]) was not above 2 µg/mL in each case.
As for `CC[C@@H]1OC(=O)[C@H](C)[C@H](O[C@@H]2C[C@](C)(OC)[C@H](OC(=O)CCNCCOc3cc4c5c(c3)c(=O)c(C(=O)O)cn5CCC4)[C@H](C)O2)[C@@H](C)[C@H](O[C@@H]2O[C@H](C)C[C@H](N(C)C)[C@@H]2O)[C@](C)(O)C[C@H](C)CN(C)[C@H](C)[C@@H](O)[C@]1(C)O` [Example 12, 4″-O-{3-[2-(6-Carboxy-7-oxo-2,3-dihydro-1H,7H-pyrido[3,2,1-ij]quinolin-9-yloxy)ethylamino]propionyl}-azithromycin tris trifluoroacetate salt], the MIC (in the assay on E. faecalis ATCC 29212; in the assay on S. pyogenes 3565; in the assay on S. pneumoniae SP030; in assay [2]) was not above 1 µg/mL throughout.
Take `CC[C@H]1OC(=O)[C@H](C)[C@@H](O[C@H]2C[C@@](C)(OC)[C@@H](OC(=O)CCOCCOc3cc4c(=O)c(C(=O)O)cn(C5CC5)c4cc3Cl)[C@H](C)O2)[C@H](C)[C@@H](O[C@@H]2O[C@H](C)C[C@H](N(C)C)[C@H]2O)[C@](C)(O)C[C@@H](C)CN(C)[C@H](C)[C@H]2OC(=O)O[C@@]21C` [Example 25, 4″-O-{3-[2-(3-Carboxy-7-chloro-1-cyclopropyl-4-oxo-1,4-dihydro-quinolin-6-yloxy)-ethoxy]-propionyl}-azithromycin11,12-carbonate]: the MIC (in the assay with E. faecalis ATCC 29212; with S. pyogenes 3565; in the assay with S. pneumoniae SP030; in assay [2]) was not above 1 µg/mL throughout.
Turning to `CC[C@H]1OC(=O)[C@H](C)[C@@H](OC2C[C@@](C)(OC)[C@@H](OC(=O)CCOCCOc3cc4c(=O)c(C(=O)O)cn(C5CC5)c4cc3Cl)[C@H](C)O2)[C@H](C)[C@@H](O[C@@H]2O[C@H](C)C[C@H](N(C)C)[C@H]2O)[C@](C)(O)C[C@@H](C)CN(C)[C@H](C)[C@@H](OC)[C@]1(C)O` (some centres unmarked) [Example 34, 4″-O-{3-[2-(3-Carboxy-7-chloro-1-cyclopropyl-4-oxo-1,4-dihydro-quinolin-6-yloxy)-ethoxy]-propionyl}-11-O-methyl-azithromycin], the MIC in the assay on H. influenzae ATCC 49247 was not above 2 µg/mL; in the assay on E. faecalis ATCC 29212, not above 1 µg/mL; in the assay on S. pyogenes 3565, not above 1 µg/mL; in assay [1], not above 2 µg/mL; with S. pneumoniae SP030, not above 1 µg/mL; in assay [2] it was not above 1 µg/mL.
With `CC[C@H]1OC(=O)[C@H](C)[C@@H](OC2C[C@@](C)(OC)[C@@H](OC(=O)CCOCCOc3ccc4c(c3)c(=O)c(C(=O)O)cn4C3CC3)[C@H](C)O2)[C@H](C)[C@@H](OC2O[C@H](C)C[C@H](N(C)C)[C@H]2O)[C@](C)(O)C[C@@H](C)CN(C)[C@H](C)[C@@H](OC)[C@]1(C)O` (some centres unmarked) [Example 35, 4″-O-{3-[2-(3-Carboxy-1-cyclopropyl-4-oxo-1,4-dihydro-quinolin-6-yloxy)-ethoxy]-propionyl}-11-O-methyl-azithromycin], the MIC is not above 2 µg/mL with H. influenzae ATCC 49247; not above 1 µg/mL in the assay on E. faecalis ATCC 29212; not above 1 µg/mL in the assay with S. pyogenes 3565; not above 2 µg/mL in assay [1]; not above 1 µg/mL in the assay with S. pneumoniae SP030; not above 1 µg/mL in assay [2].
Consider `CC[C@@H]1OC(=O)[C@H](C)[C@@H](O[C@H]2C[C@@](C)(OC)[C@@H](OC(=O)CCNCCSc3ccc4c(=O)c(C(=O)O)cn(CC)c4c3)[C@@H](C)O2)[C@@H](C)[C@H](O[C@H]2O[C@@H](C)C[C@@H](N(C)C)[C@H]2O)[C@](C)(O)C[C@H](C)CN(C)[C@H](C)[C@H]2OC(=O)O[C@]12C` [Example 2, 4″-O-{3-[2-(3-Carboxy-1-ethyl-4-oxo-1,4-dihydro-7-quinolinylsulfanyl)ethylamino]propionyl}-azithromycin-11,12-carbonate], for which the MIC with H. influenzae ATCC 49247 was not above 2 µg/mL; in the assay on E. faecalis ATCC 29212 it was not above 1 µg/mL; against S. pyogenes 3565, not above 1 µg/mL; in assay [1] it was not above 2 µg/mL; against S. pneumoniae SP030, not above 1 µg/mL; in assay [2] it was not above 1 µg/mL.
Take `CC[C@@H]1OC(=O)[C@H](C)[C@H](O[C@@H]2C[C@@](C)(OC)[C@H](OC(=O)CCOCCOc3cc4c(=O)c(C(=O)O)cn(C5CC5)c4cc3Cl)[C@H](C)O2)[C@@H](C)[C@H](O[C@@H]2O[C@H](C)C[C@H](N(C)C)[C@@H]2O)[C@@](C)(OC)C[C@H](C)C(=O)[C@H](C)[C@@H](O)[C@]1(C)O` [Example 37, 4″-O-{3-[2-(3-Carboxy-7-chloro-1 cyclopropyl-4-oxo-1,4-dihydro-quinolin-6-yloxy)ethoxy]propionyl}-6-O-methyl-erythromycin A]: the MIC (with E. faecalis ATCC 29212; with S. pyogenes 3565; against S. pneumoniae SP030; in assay [2]) was not above 1 µg/mL throughout.
On to `CC[C@@H]1OC(=O)[C@H](C)[C@H](O[C@@H]2C[C@](C)(OC)[C@H](OC(=O)CCNCCSc3ccc4c(c3)c(=O)c(C(=O)O)cn4CC)[C@H](C)O2)[C@@H](C)[C@H](O[C@@H]2O[C@H](C)C[C@H](N(C)C)[C@@H]2O)[C@](C)(O)C[C@H](C)CN(C)[C@H](C)[C@@H](O)[C@]1(C)O` [Example 10, 4″-O-{3-[2-(3-Carboxy-1-ethyl-4-oxo-1,4-dihydro-6-quinolinysulfanyl)ethylamino]propionyl}-azithromycin], for which the MIC (with E. faecalis ATCC 29212; with S. pyogenes 3565; against S. pneumoniae SP030; in assay [2]) was not above 1 µg/mL each time.
